In patent US9907763B2, “Method of treating or preventing the visual function loss by using 4-(phenylsulfanyl)butane-2-one (4-PSB-2)” (NATIONAL SUN YAT-SEN UNIVERSITY, priority 2016, dated 2018):

Assays:
Cd11b = assay: Immunohistochemistry of Cd11b in the retina after optic nerve crush; type: in vivo, Wistar rats; details: two weeks after ON crush, 5 mg/kg s.c. once, n=6, sham 2.3±1.7, PBS 40.0±9.7
Protocol: (§1) Forty five adult male Wistar rats weighing 150-180 g (7-8 weeks old) were used and grouped (Table 1). All manipulations were performed with animals under general anesthesia induced by an intramuscular injection of a mixture of ketamine (40 mg/kg body weight (BW)) and xylazine (4 mg/kg BW). In addition, topical 0.5% Alcaine eye drops (Alcon, Puurs, Belgium) were used to perform topical anesthesia.
(§2) After general anesthesia and topical Alcaine eye drop application, the ON was exposed and isolated. Care was taken to avoid damaging the small vessels around the ON. A vascular clip (60 g micro-vascular clip) was then applied to the ON 2 mm posterior to the globe for 30 seconds. After the surgery, Tobradex eye ointment (Alcon, Puurs, Belgium) was administered. The rats were kept on electric heating pads at 37° C. for recovery. […]
(§3) IHC of ED1 (CD68, a marker of macrophage/microglia) in the ONs and IHC of CD11b, iNOS and COX-2 in the retina using monoclonal antibodies (ED1, 1:50; CD11b, 1:20; AbD Serotec, Oxford, UK) or polyclonal antibodies (iNOS, 1:50; Cell signaling Inc. Beverly, Mass., USA; COX-2, 1:50; Santa Cruz, Calif., USA) were performed. […] For comparison, ED1 positive cells were counted in six HPF at the lesion site of ON (six rats in each group). Cd11b positive cells were counted in six HPF and three sections per eye were averaged.

RGC layer = assay: TUNEL assay in retinal sections after optic nerve crush; type: in vivo, Wistar rats; details: RGC layer of retina; two weeks after ON crush; 5 mg/kg s.c. once; n=6; sham 2.0±1.7, PBS 14.8±6.5
Protocol: as §1
After general anesthesia and topical Alcaine eye drop application, the ON was exposed and isolated. Care was taken to avoid damaging the small vessels around the ON. A vascular clip (60 g micro-vascular clip) was then applied to the ON 2 mm posterior to the globe for 30 seconds. After the surgery, Tobradex eye ointment (Alcon, Puurs, Belgium) was administered. The rats were kept on electric heating pads at 37° C. for recovery. The control group received a sham operation that entailed ON exposure without the crush. […]
To ensure the use of equivalent fields for comparison, all retinal frozen sections were prepared with retinas at 1-2 mm distance from the optic nerve head. […] The TUNEL positive cells in the RGC layer of each sample were counted in ten high powered fields (HPF, ×400 magnification), and three sections per eye were averaged.

iNOS = assay: Immunoblotting and immunohistochemical analysis of iNOS expression in the retina after ON crush; type: in vivo, Wistar rats; details: two weeks after ON crush, 5 mg/kg s.c. once, ratio to GAPDH, n=3, result in words
Protocol: as §1, §2
(§4) IHC of ED1 (CD68, a marker of macrophage/microglia) in the ONs and IHC of CD11b, iNOS and COX-2 in the retina using monoclonal antibodies (ED1, 1:50; CD11b, 1:20; AbD Serotec, Oxford, UK) or polyclonal antibodies (iNOS, 1:50; Cell signaling Inc. Beverly, Mass., USA; COX-2, 1:50; Santa Cruz, Calif., USA) were performed. […] For comparison, ED1 positive cells were counted in six HPF at the lesion site of ON (six rats in each group). Cd11b positive cells were counted in six HPF and three sections per eye were averaged. […]

Wistar rats = assay: Flash visual-evoked potentials (FVEPs) after optic nerve crush; type: in vivo; details: 2 weeks after ON crush; 5 mg/kg s.c. once; n=6; sham 83±3 ms, PBS 154±23 ms
Protocol: as §1
(§5) After general anesthesia and topical Alcaine eye drop application, the ON was exposed and isolated. Care was taken to avoid damaging the small vessels around the ON. A vascular clip (60 g micro-vascular clip) was then applied to the ON 2 mm posterior to the globe for 30 seconds. After the surgery, Tobradex eye ointment (Alcon, Puurs, Belgium) was administered. The rats were kept on electric heating pads at 37° C. for recovery. The control group received a sham operation that entailed ON exposure without the crush. 4-PSB-2 (5 mg/kg in 0.2 mL phosphate-buffered saline) or phosphate buffered saline (PBS control) was immediately administered after ON crush once by subcutaneous injection.
For the functional evaluation of the ON, FVEPs were recorded 2 weeks after ON crush in 18 experimental rats. […]

[1] = tested on: ED1 (CD68, a marker of macrophage/microglia); assay: Immunohistochemistry of ED1 in the ONs after optic nerve crush; type: in vivo, Wistar rats; details: lesion site of ON; two weeks after ON crush; 5 mg/kg s.c. once; n=6; sham 4.3±2.5, PBS 67.3±21.1
Protocol: as §1, §2, §3

RGCs = assay: Retrograde Fluoro-Gold labeling of RGCs and RGC densities after optic nerve crush; type: in vivo, Wistar rats; details: two weeks after ON crush
Protocol: as §1, §5
With this technique, only the RGCs with intact axons projected to the SC were labeled with FG. The procedure was performed based on Chang et al (Exp. Eye Res., 2004, 118, 109-116). Briefly, one week before sacrificing, the rats were anesthetized using a ketamine (100 mg/kg) and Xylazine (10 mg/kg) mixture, and then placed in a stereotactic apparatus. […] One week after labeling, the eyeballs were harvested after euthanasia of the animals. The eyeballs were placed in 10% formalin and iii the whole retina was then carefully dissected, flattened. The retina was examined with a 400× epi-fluorescence microscope equipped with a filter set (excitation filter=350-400 nm; barrier filter=515 nm), as well as a digital camera and software. The retinas were examined for RGCs at a distance of 1 or 3 mm from the optic nerve head in order to provide the central and mid-peripheral RGC densities respectively (FIG. 1A). RGCs were counted in eight areas randomly of […]/each in the central (about 40% of the central area) (FIG. 1B), and eight areas randomly of 38,250 mm^2/each in the mid-peripheral (about 30% of the mid-periphery) regions of each retina. The averages of these areas were taken as the mean density of RGCs per retina. RGC survival percentage was defined as the number of RGCs in each treatment group divided by the number of RGCs in the sham operated retina, multiplied by 100.

COX-2 = assay: Immunoblotting and immunohistochemical analysis of COX-2 expression in the retina after ON crush; type: in vivo, Wistar rats; details: two weeks after ON crush, 5 mg/kg s.c. once, ratio to GAPDH, n=3, result in words
Protocol: as §1, §2, §4

## CC(=O)CCSc1ccccc1 [4-PSB-2, 4-(phenylsulfanyl)butan-2-one]
Cd11b
  Cd11b positive cells/HPF: 17.3±5.9 positive cells/HPF
RGC layer
  TUNEL positive cells in the RGC layer: 6.7±3.4 positive cells/HPG
iNOS
  iNOS expression in the retina: prevented the increase
Wistar rats
  latency of the P1 wave (FVEP): 118 ± 14 ms
[1]
  ED1 positive cells/HPF: 33.5±14.5 positive cells/HPF
RGCs; central retina, 5 mg/kg once by subcutaneous injection immediately after crush, n=6
  densities of RGCs in the central retina: 1342±473 /mm^2
RGCs; central retina, relative to sham operated retina, 5 mg/kg s.c. once
  RGC survival, central retina: 56.8 % survival
RGCs; central retina, vs PBS-treated group, p<0.05
  RGC survival rate increase as compared to the PBS-treated group, central retina: approximately 35.7%
RGCs; mid-peripheral retina, 5 mg/kg once by subcutaneous injection immediately after crush, n=6
  densities of RGCs in mid-peripheral retina: 915±244 /mm^2
RGCs; mid-peripheral retina, relative to sham operated retina, 5 mg/kg s.c. once
  RGC survival, mid-peripheral retina: 65.3 % survival
RGCs; mid-peripheral retina, vs PBS-treated group, p<0.05
  RGC survival rate increase as compared to the PBS-treated group, mid-peripheral retina: ~35.3%
COX-2
  COX-2 expression in the retina: prevented the increase
